In US10870832B2, “Use of small molecules to enhance MAFA expression in pancreatic endocrine cells” (Janssen Biotech, Inc., priority 2014, dated 2020):

How the values were obtained:
Assay type in all cases: cell-based, human
[1] = system: MAFA expression; assay: Stage 7 treatment, real-time PCR of MAFA (Example 6); details: Stage 7, day 7, 2 μM in Stage 7 medium, H1-derived cells, mRNA
Protocol: (§1) Cells of the human embryonic stem cell line H1 (WA01) were seeded as single cells at 1×10^5 cells/cm^2 on MATRIGEL™ (1:30 dilution) coated dishes in E8 media. At about 70 to 80% confluency, the cultures were washed in 1× incomplete DPBS followed by incubation with 1× TrypLET™ Express Enzyme for 3 to 5 minutes at 37° C. The released cells were rinsed with E8 and spun at 1000 rpm for 5 minutes. The resulting cell pellet was resuspended in E8 supplemented with 10 μM Y-27632 and the single cell suspension was seeded at approximately 1.3 to 1.5×10^5 cells/cm^2. The cultures were fed every day with E8 medium and differentiation, according to the following protocol, was initiated 48 hrs. following seeding resulting in an about 90% starting confluency.
(§2) Stage 6 cells were cultured for seven days in BLAR medium supplemented with a 1:100 dilution of ITS-X; 20 mM glucose (final); 1.5 g/L sodium bicarbonate; 2% FAF-BSA; 10 μg/ml of heparin, 10 μM ZnSO4, 1 μM T3 as 3,3′, 5-triiodo-L-thyronine sodium salt, 10 μM ALK5 inhibitor II, 1 mM N-acetyl cysteine. […]
(§3) At Stage 7, day 7, mRNA was collected and expression of MAFA, UCN3, PDX1, NKX6.1, insulin and G6PC2 evaluated as compared to undifferentiated human stem cells. […]

[2] = system: G6PC2 expression; assay: Stage 7 treatment, real-time PCR of G6PC2 (Example 6); details: Stage 7, day 7, 2 μM in Stage 7 medium, H1-derived cells, mRNA
Protocol: as §1, §2, §3

[3] = system: MAFA expression; assay: Small molecule screen at Stage 6 or 7, real-time PCR (Example 2); details: added at Stage 7, 1 μM, H1-derived cells at air-liquid interface
Protocol: Cells of the human embryonic stem cell line H1 (WA01) at passage 42 were seeded as single cells at 1×10^5 cells/cm^2 on MATRIGEL™ (1:30 dilution)-coated dishes in a media comprising of DMEM-F12, GlutaMAX™ (1:100 dilution), 0.25 mM ascorbic acid, 100 ng/ml of FGF2 (R & D systems, MN), 1 ng/ml of TGF-β, ITS-X (1:100 dilution), 2% FAF-BSA, and 20 ng/ml of IGF-1, supplemented with 10 μM of Y-27632. Forty-eight hours post-seeding, the cultures were washed in incomplete PBS (phosphate buffered saline without Mg or Ca) followed by incubation with 1× TrypLE™ Express Enzyme (Life Science; Catalog No. 14190) for 3 to 5 minutes at 37° C. The released cells were rinsed with DMEM-F12 and spun at 1000 rpm for 5 minutes. The resulting cell pellet was resuspended in DMEM-F12 supplemented with 10 μM Y-27632, 1× GlutaMAX™, 0.25 mM ascorbic acid, 100 ng/ml FGF2, 1 ng/ml TGF-β, ITS-X at a 1:100 dilution, 2% FAF-BSA and 20 ng/ml of IGF-1 and the single cell suspension was seeded at approximately 1.3 to 1.5×10^5 cells/cm^2. The cultures were fed every day with medium and differentiation, according to the following protocol, was initiated 48 hours following seeding resulting in an about 90% starting confluency. […]
At Stages 6 or 7, various small molecules were added and their effect was evaluated by real-time PCR.

[4] = system: UCN3 expression; assay: Stage 7 treatment, real-time PCR of UCN3 (Example 6); details: Stage 7, day 7, 2 μM in Stage 7 medium, H1-derived cells, mRNA
Protocol: as §1, §2, §3

## Nc1nc(Nc2ccc3c(c2)CC[C@@H](N2CCCC2)CC3)nn1-c1cc2c(nn1)-c1ccccc1CCC2 [R428, 1H-1,2,4-Triazole-3,5-diamine, 1-(6,7-dihydro-5H-benzo[6,7]cyclohepta[1,2-c]pyridazin-3-yl) N3-[(7S)-6,7,8,9-tetrahydro-7-(1-pyrrolidinyl)-5H-benzocyclohepten-2-yl]-]
[1]
  MAFA expression: increases MAFA expression
[2]
  G6PC2 expression: reduces other beta cell maturation markers
[3]
  expression of MAFA as compared to untreated cultures: significantly upregulated
[4]
  UCN3 expression: reduces other beta cell maturation markers
